Literature values in patent US20230218796A1, “Tissue adhesive for use in a treatment method in which an ophthalmological implant is implanted in a human or animal patient, and ophthalmological implantation system” (priority 2020, published 2023).

Legend:
[1] = test system: cell growth in the capsular bag
[2] = test system: epithelial cell layer of the cornea; conditions: free thapsigargin released into the aqueous humor in the anterior chamber

C/C=C(/C)C(=O)O[C@H]1C(C)=C2[C@H]([C@@H]1OC(=O)CCCCCCC)[C@@](C)(OC(C)=O)C[C@H](OC(=O)CCC)[C@@]1(O)[C@H]2OC(=O)[C@@]1(C)O [thapsigargin]
higher concentration that induces cell death ([1]; higher concentrations): 10 to 100 µM
low concentration that greatly reduces cell growth in the capsular bag ([1]; low concentrations): 100 nM
damage to the cornea on free release into the aqueous humor in the anterior chamber [2]: can damage the epithelial cell layer of the cornea
